Format in all cases: in vivo, rat
One assay has as its system CHF-HKYd rats. Briefly: Doppler echocardiography of cardiac function in CHF-HKYd rats. Particulars: benazepril 0.5 mg/kg by gavage for 4 weeks (positive control). The procedure: (§1) SPF SD male rats were anesthetized by intraperitoneal injection of 25% urethane (1,000 mg/kg). Cut off the skin tissue for about 1 cm, blunt away from bilateral neck muscles, separate and excise the bilateral thyroid glands, and the parathyroid glands were retained. The mixture of noradrenaline and normal saline (1:4,000) was used to stop intraoperative bleeding during the operation, the muscle and skin were sutured and 0.1% calcium gluconate solution was given postoperatively. On the 10th day after thyroidectomy, the rats were intraperitoneally injected with 0.02% doxorubicin hydrochloride (1 mL/100 g), twice a week for 3 weeks.
The general state of rats was observed: the basic criteria for the symptoms of HKYd were dark purple coating on the tongue, asthma, edema, fear of cold, emaciation, loose stools, sleepiness, hypotrichosis, etc. The urine volume of rats was measured: 1 week after the last injection, 24 h urine volume of rats in the normal and model group were collected in the metabolic cage, and the urine samples were frozen at −80°C. Evaluation of cardiac function in rats by Doppler echocardiography: After urine collection, the rats were anesthetized and fixed in the supine position. The precardiac area of the rats was depilated and the coupling agent was applied, a frequency of 12 MHz. M-mode ultrasound and pulsed Doppler ultrasound were used to detect diastolic interventricular septum (IVSD), left ventricular internal diastolic diameter (LVIDd), left ventricular posterior wall diastolic diameter (LVPWd), systolic interventricular septum (IVSs) and left ventricular internal systolic diameter (LVIDs), left ventricular posterior wall systolic diameter (LVPWs), stroke volume (SV), left ventricular ejection fraction (LVEF), left ventricular short-axis systolic fraction (FS), and the ratio of peak flow velocity between early and late mitral valve diastole (E/A) through the left ventricular macropinacoid of left sternal bone and four-chamber view. Neuroendocrine factor detection: After the echocardiography, 1 mL of blood was taken from the canthus of rats in each group, blood was placed in the water at 37°C for 1.5 h, centrifuged to obtain serum (3,000 rpm, 10 min), frozen at −80°C. The contents of serum NT-proBNP, T3, and T4 were detected by ELISA.
(§2) All rats were randomly divided into control group, model group, ESZWD low-dose (3.96 g/kg), medium-dose (7.92 g/kg), high-dose (15.84 g/kg) groups, and positive control group (benazepril, 0.5 mg/kg), with six rats in each group. The CHF-HKYd was established after 1 week of feeding. ESZWD and benazepril were administered by gavage separately for 4 weeks after successful modeling, except for the control group. Blood was collected for 5, 10, 20, 30, 45 min, 1, 2, 4, 6, 8, 12, and 24 h, standing for 2 h and centrifuged at 4°C, 3,500 rpm for 10 min, the supernatant was retained. The state of rats was observed and the urine volume at 24 h was measured. The structure and function of rat heart were evaluated by doppler ultrasonography. Serum biomarkers including myocardial injury indicators NT-proBNP, angiotensinII (AngII), aldosterone (ALD), reactive oxygen species (ROS), superoxide dismutase (SOD), malondialdehyde (MDA), and tumor necrosis factor α (TNF-α) and interleukin 6 (IL-6) were detected by ELISA.

A further assay has as its system NT-proBNP. Briefly: Serum NT-proBNP by ELISA in CHF-HKYd rats. The following applies: benazepril 0.5 mg/kg, gavage 4 weeks. The procedure: as §1
The general state of rats was observed: the basic criteria for the symptoms of HKYd were dark purple coating on the tongue, asthma, edema, fear of cold, emaciation, loose stools, sleepiness, hypotrichosis, etc. The urine volume of rats was measured: 1 week after the last injection, 24 h urine volume of rats in the normal and model group were collected in the metabolic cage, and the urine samples were frozen at −80°C. Evaluation of cardiac function in rats by Doppler echocardiography: After urine collection, the rats were anesthetized and fixed in the supine position. The precardiac area of the rats was depilated and the coupling agent was applied, a frequency of 12 MHz. […] The contents of serum NT-proBNP, T3, and T4 were detected by ELISA. […]
Background: ELISA stands for enzyme-linked immunosorbent assay.

A further assay deals with ALD. Briefly: Serum aldosterone (ALD) by ELISA in CHF-HKYd rats. Particulars: benazepril 0.5 mg/kg, gavage 4 weeks. As for the experimental part: as §1
as §2, with “ESZWD and benazepril were administered by gavage separately for 4 weeks after successful modeling, except for the control group. Blood was collected for 5, 10, 20, 30, 45 min, 1, 2, 4, 6, 8, 12, and 24 h, standing for 2 h and centrifuged at 4°C, 3,500 rpm for 10 min, the supernatant was retained.” left out

For another assay, the system named is AngII. Briefly: Serum angiotensinII (AngII) by ELISA in CHF-HKYd rats. Particulars: benazepril 0.5 mg/kg, gavage 4 weeks. As for the experimental part:
as §1
as §2, with “ESZWD and benazepril were administered by gavage separately for 4 weeks after successful modeling, except for the control group. Blood was collected for 5, 10, 20, 30, 45 min, 1, 2, 4, 6, 8, 12, and 24 h, standing for 2 h and centrifuged at 4°C, 3,500 rpm for 10 min, the supernatant was retained.” left out

The subject of another assay is ROS. Briefly: Serum reactive oxygen species (ROS) by ELISA in CHF-HKYd rats. Particulars: benazepril 0.5 mg/kg, gavage 4 weeks. The procedure: as §1
as §2, with “ESZWD and benazepril were administered by gavage separately for 4 weeks after successful modeling, except for the control group. Blood was collected for 5, 10, 20, 30, 45 min, 1, 2, 4, 6, 8, 12, and 24 h, standing for 2 h and centrifuged at 4°C, 3,500 rpm for 10 min, the supernatant was retained.” left out

The test system of another assay is MDA. The experiment in a line: Serum malondialdehyde (MDA) by ELISA in CHF-HKYd rats. Particulars: benazepril 0.5 mg/kg, gavage 4 weeks. As for the experimental part: as §1
as §2, with “ESZWD and benazepril were administered by gavage separately for 4 weeks after successful modeling, except for the control group. Blood was collected for 5, 10, 20, 30, 45 min, 1, 2, 4, 6, 8, 12, and 24 h, standing for 2 h and centrifuged at 4°C, 3,500 rpm for 10 min, the supernatant was retained.” left out

In another assay the test system is TNF-α. Briefly: Serum TNF-α by ELISA in CHF-HKYd rats. The following applies: benazepril 0.5 mg/kg, gavage 4 weeks. The procedure: as §1
as §2, with “ESZWD and benazepril were administered by gavage separately for 4 weeks after successful modeling, except for the control group. Blood was collected for 5, 10, 20, 30, 45 min, 1, 2, 4, 6, 8, 12, and 24 h, standing for 2 h and centrifuged at 4°C, 3,500 rpm for 10 min, the supernatant was retained.” left out

The next assay concerns IL-6. The experiment in a line: Serum IL-6 by ELISA in CHF-HKYd rats. The following applies: benazepril 0.5 mg/kg, gavage 4 weeks. As for the experimental part:
as §1
as §2, with “ESZWD and benazepril were administered by gavage separately for 4 weeks after successful modeling, except for the control group. Blood was collected for 5, 10, 20, 30, 45 min, 1, 2, 4, 6, 8, 12, and 24 h, standing for 2 h and centrifuged at 4°C, 3,500 rpm for 10 min, the supernatant was retained.” left out

SMILES strings stand for the structures.

In the assay on CHF-HKYd rats, `CCOC(=O)[C@H](CCc1ccccc1)N[C@H]1CCc2ccccc2N(CC(=O)O)C1=O` [Benazepril, benazepril] yielded an E/A of 1.794 ± 0.28, an FS of 60.31 ± 8.10 %, an IVSd of 1.800 ± 0.62 mm and an IVSs of 3.425 ± 0.88 mm. In the assay on CHF-HKYd rats, this compound displayed an LVEF of 92.30 ± 4.09 %, an LVIDd of 5.950 ± 1.28 mm, an LVIDs of 2.350 ± 0.72 mm and an LVPWd of 1.900 ± 0.67 mm. Also, in the assay with CHF-HKYd rats, the LVPWs is 3.525 ± 0.79 mm and the SV is on record as 0.4950 ± 0.25 mL. Further, in the assay with NT-proBNP, the “serum NT-proBNP level vs model group” value is “significantly reduced”. Besides, the “serum ALD level vs model group” value with ALD is given as “significantly reduced”. Further, in the assay on AngII, the “serum AngII level vs model group” value is “significantly reduced”. The “serum ROS level vs model group” value in the assay on ROS is given as “significantly reduce”. Further, the “serum MDA level vs model group” value with MDA is on record as “significantly reduce”. Also, the “serum TNF-α level vs model group” value in the assay on TNF-α is on record as “significantly reduced”. Moreover, the “serum IL-6 level vs model group” value with IL-6 is “significantly reduced”.

These data come from publication PMC9515952, “Tentative exploration of pharmacodynamic substances: Pharmacological effects, chemical compositions, and multi-components pharmacokinetic characteristics of ESZWD in CHF-HKYd rats” (Frontiers in Cardiovascular Medicine, 2022).
